ChEMBL document CHEMBL4507275, “Data for DCP probe BI-2545” (2021)

Tests used:
[1] = target: Mitogen-activated protein kinase kinase kinase kinase 4 (Homo sapiens) (UniProt O95819); conditions: Compound concentration 1000.0 nM
[2] = target: 5-hydroxytryptamine receptor 2A (Homo sapiens, UniProt P28223); conditions: Compound concentration 10.0 uM
[3] = target: Serine/threonine-protein kinase PAK 3 (Homo sapiens) (UniProt O75914); conditions: Compound concentration 1000.0 nM
[4] = test system: Mast/stem cell growth factor receptor Kit (Homo sapiens), P10721 [V559D]; conditions: Compound concentration 1000.0 nM
[5] = target: T1, Alpha-1A adrenergic receptor (Homo sapiens) (UniProt P35348); conditions: Compound concentration 10.0 uM
T1 sequence (whole entry): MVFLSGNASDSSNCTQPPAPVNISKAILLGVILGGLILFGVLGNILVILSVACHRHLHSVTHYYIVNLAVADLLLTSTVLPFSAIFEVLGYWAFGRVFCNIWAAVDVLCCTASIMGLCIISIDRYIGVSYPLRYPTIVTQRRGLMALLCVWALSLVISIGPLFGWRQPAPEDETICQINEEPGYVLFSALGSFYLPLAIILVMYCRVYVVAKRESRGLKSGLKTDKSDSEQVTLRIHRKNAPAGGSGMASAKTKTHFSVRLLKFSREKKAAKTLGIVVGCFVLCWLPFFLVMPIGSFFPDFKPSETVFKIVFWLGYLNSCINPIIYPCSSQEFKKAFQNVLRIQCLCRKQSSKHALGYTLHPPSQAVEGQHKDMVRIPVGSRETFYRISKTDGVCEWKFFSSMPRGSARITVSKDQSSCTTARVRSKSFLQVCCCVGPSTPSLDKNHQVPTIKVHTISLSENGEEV

[6] = target: Tyrosine-protein kinase TXK (Homo sapiens) (UniProt P42681); conditions: Compound concentration 1000.0 nM
[7] = target: Ribosomal protein S6 kinase alpha-1 (Homo sapiens) (UniProt Q15418); conditions: Compound concentration 1000.0 nM
[8] = target: Serine/threonine-protein kinase OSR1 (Homo sapiens) (UniProt O95747); conditions: Compound concentration 1000.0 nM
[9] = target: Cytoplasmic tyrosine-protein kinase BMX (Homo sapiens) (UniProt P51813); conditions: Compound concentration 1000.0 nM
[10] = target: Inhibitor of nuclear factor kappa-B kinase subunit beta (Homo sapiens) (UniProt O14920); conditions: Compound concentration 1000.0 nM
[11] = target: Citron Rho-interacting kinase (Homo sapiens) (UniProt O14578); conditions: Compound concentration 1000.0 nM
[12] = target: Ribosomal protein S6 kinase alpha-3 (Homo sapiens) (UniProt P51812); conditions: Compound concentration 1000.0 nM
[13] = target: Ephrin type-A receptor 1 (Homo sapiens) (UniProt P21709); conditions: Compound concentration 1000.0 nM
Ephrin type-A receptor 1 (Homo sapiens), sequence (P21709 whole entry): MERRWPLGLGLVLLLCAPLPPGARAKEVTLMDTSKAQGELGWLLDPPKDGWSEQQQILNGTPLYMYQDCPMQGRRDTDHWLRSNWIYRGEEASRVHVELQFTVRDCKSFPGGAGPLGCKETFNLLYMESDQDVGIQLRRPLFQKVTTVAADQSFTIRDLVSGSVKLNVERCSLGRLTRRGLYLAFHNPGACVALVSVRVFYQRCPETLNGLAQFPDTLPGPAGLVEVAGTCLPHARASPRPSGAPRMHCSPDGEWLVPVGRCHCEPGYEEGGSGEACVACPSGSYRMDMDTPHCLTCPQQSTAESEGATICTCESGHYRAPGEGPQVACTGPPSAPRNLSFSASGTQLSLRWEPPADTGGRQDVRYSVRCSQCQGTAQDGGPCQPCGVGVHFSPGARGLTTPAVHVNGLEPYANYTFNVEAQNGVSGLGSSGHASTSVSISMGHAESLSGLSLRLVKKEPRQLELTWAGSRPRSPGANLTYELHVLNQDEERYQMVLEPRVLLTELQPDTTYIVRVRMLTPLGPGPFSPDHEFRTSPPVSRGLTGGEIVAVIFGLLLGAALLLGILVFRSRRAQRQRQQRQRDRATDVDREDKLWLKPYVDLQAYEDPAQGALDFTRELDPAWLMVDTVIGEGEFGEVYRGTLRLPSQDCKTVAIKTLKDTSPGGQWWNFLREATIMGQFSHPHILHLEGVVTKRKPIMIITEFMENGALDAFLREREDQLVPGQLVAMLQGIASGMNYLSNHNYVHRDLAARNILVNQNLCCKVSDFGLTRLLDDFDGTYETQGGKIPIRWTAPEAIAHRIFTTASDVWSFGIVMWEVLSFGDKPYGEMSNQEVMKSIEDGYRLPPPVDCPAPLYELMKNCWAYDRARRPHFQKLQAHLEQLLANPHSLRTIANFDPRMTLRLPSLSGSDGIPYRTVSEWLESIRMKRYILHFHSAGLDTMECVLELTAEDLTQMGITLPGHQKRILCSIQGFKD

[14] = target: Ribosomal protein S6 kinase alpha-6 (Homo sapiens) (UniProt Q9UK32); conditions: Compound concentration 1000.0 nM
[15] = target: Tyrosine-protein kinase Fer (Homo sapiens) (UniProt P16591); conditions: Compound concentration 1000.0 nM
Tyrosine-protein kinase Fer (Homo sapiens), sequence (P16591 whole entry, looked up): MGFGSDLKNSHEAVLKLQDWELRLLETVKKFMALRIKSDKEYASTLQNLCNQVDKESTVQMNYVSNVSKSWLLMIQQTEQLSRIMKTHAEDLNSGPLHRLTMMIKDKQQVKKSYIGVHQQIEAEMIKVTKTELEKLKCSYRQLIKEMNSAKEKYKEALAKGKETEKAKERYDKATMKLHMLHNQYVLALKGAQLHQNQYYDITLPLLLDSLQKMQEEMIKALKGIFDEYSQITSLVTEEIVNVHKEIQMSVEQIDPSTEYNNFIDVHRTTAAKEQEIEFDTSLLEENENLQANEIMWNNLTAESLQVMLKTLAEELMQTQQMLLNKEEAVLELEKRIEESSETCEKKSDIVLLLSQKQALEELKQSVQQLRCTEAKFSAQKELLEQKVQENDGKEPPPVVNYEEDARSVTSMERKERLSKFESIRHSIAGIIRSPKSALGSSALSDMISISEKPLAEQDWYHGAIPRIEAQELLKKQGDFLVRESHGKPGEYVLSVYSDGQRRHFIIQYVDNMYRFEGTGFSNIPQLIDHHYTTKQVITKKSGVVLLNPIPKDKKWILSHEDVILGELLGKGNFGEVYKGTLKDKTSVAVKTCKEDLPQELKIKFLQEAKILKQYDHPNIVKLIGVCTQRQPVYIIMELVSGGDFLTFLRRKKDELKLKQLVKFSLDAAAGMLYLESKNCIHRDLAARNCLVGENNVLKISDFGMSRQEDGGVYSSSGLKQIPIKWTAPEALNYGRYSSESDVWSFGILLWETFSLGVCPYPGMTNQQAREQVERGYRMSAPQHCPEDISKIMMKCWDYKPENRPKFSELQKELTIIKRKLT

[16] = target: Tyrosine-protein kinase Blk (Homo sapiens) (UniProt P51451); conditions: Compound concentration 1000.0 nM
[17] = target: Serine/threonine-protein kinase TAO1 (Homo sapiens) (UniProt Q7L7X3); conditions: Compound concentration 1000.0 nM
[18] = target: 5-hydroxytryptamine receptor 6 (Homo sapiens) (UniProt P50406); conditions: Compound concentration 10.0 uM
[19] = target: Mitogen-activated protein kinase kinase kinase 3 (Homo sapiens) (UniProt Q99759); conditions: Compound concentration 1000.0 nM
Rattus norvegicus = species on record: Rattus norvegicus; conditions: Compound concentration 10.0 uM
[20] = target: Ephrin type-A receptor 7 (Homo sapiens) (UniProt Q15375); conditions: Compound concentration 1000.0 nM
Ephrin type-A receptor 7 (Homo sapiens), sequence (Q15375 28-998 limits assumed): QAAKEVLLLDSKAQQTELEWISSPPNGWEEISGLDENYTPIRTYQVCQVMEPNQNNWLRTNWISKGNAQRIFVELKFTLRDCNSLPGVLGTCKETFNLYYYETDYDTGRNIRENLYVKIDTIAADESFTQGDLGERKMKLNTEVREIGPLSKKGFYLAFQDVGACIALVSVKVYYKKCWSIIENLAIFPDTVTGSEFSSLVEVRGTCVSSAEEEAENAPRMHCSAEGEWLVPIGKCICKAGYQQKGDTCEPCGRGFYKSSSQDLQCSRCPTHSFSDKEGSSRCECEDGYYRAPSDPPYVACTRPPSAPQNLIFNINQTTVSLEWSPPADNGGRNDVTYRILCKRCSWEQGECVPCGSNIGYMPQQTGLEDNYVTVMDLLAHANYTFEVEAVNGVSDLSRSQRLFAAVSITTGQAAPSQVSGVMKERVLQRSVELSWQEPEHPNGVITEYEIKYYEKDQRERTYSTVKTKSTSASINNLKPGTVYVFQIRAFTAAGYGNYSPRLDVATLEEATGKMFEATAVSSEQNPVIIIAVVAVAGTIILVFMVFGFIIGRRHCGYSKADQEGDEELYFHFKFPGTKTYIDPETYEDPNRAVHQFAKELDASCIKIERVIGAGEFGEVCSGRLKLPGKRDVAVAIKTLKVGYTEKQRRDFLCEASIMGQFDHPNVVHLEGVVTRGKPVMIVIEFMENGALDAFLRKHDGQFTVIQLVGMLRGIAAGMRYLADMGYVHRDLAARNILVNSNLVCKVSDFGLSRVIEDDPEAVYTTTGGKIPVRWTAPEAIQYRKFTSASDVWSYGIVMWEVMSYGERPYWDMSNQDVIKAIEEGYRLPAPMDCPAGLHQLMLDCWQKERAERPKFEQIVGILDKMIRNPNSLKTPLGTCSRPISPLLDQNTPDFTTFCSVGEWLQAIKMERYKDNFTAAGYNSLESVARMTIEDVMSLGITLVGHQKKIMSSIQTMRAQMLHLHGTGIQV

[21] = test system: Receptor-type tyrosine-protein kinase FLT3 (Homo sapiens), P36888 [UNDEFINED MUTATION]; conditions: Compound concentration 1000.0 nM
[22] = target: Vascular endothelial growth factor receptor 3 (Homo sapiens) (UniProt P35916); conditions: Compound concentration 1000.0 nM
[23] = target: Mitogen-activated protein kinase 4 (Homo sapiens) (UniProt P31152); conditions: Compound concentration 1000.0 nM
[24] = target: 5'-AMP-activated protein kinase catalytic subunit alpha-1 (Homo sapiens) (UniProt Q13131); conditions: Compound concentration 1000.0 nM
[25] = target: Serine/threonine-protein kinase N1 (Homo sapiens) (UniProt Q16512); conditions: Compound concentration 1000.0 nM
[26] = test system: Proto-oncogene tyrosine-protein kinase receptor Ret (Homo sapiens), P07949 [V804L]; conditions: Compound concentration 1000.0 nM
[27] = target: Mitogen-activated protein kinase 12 (Homo sapiens) (UniProt P53778); conditions: Compound concentration 1000.0 nM
Mitogen-activated protein kinase 12 (Homo sapiens), sequence (P53778 whole entry): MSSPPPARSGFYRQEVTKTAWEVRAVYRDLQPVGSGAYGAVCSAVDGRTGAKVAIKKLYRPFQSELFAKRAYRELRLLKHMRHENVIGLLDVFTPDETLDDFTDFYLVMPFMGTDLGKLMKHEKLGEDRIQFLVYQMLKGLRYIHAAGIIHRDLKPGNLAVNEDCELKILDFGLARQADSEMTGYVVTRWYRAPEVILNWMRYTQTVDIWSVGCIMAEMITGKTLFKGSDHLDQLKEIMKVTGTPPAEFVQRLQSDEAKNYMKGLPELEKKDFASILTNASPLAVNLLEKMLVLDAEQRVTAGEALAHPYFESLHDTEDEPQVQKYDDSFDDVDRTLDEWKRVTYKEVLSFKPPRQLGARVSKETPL

[28] = target: Mitogen-activated protein kinase kinase kinase kinase 3 (Homo sapiens) (UniProt Q8IVH8); conditions: Compound concentration 1000.0 nM
Mitogen-activated protein kinase kinase kinase kinase 3 (Homo sapiens), sequence (Q8IVH8 whole entry): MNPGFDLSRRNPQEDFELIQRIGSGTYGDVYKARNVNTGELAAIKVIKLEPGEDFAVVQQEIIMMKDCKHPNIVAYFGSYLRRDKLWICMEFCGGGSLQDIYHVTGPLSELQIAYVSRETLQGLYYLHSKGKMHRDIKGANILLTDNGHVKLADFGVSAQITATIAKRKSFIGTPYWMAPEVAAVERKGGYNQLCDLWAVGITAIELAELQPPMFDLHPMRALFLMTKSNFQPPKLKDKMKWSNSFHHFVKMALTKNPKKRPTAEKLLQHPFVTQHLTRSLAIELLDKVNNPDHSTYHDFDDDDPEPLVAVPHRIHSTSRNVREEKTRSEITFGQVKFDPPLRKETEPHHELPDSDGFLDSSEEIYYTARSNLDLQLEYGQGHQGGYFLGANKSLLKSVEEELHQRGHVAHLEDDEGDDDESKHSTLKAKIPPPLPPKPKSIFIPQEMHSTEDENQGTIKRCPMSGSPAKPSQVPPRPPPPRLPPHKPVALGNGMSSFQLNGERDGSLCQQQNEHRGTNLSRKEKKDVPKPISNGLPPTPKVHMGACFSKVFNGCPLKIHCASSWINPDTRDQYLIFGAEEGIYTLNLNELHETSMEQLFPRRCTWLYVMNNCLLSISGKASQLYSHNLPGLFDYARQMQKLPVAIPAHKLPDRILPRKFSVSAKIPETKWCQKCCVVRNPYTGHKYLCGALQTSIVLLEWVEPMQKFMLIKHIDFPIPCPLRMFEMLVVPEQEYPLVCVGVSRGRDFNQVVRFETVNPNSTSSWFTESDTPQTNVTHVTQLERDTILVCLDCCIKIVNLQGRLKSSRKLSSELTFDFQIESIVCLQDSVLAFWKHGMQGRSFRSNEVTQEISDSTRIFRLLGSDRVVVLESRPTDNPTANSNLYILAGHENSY

[29] = target: Serine/threonine-protein kinase MARK2 (Homo sapiens) (UniProt Q7KZI7); conditions: Compound concentration 1000.0 nM
[30] = target: Mitogen-activated protein kinase 9 (Homo sapiens) (UniProt P45984); conditions: Compound concentration 1000.0 nM
[31] = target: Serine/threonine-protein kinase ULK1 (Homo sapiens) (UniProt O75385); conditions: Compound concentration 1000.0 nM
[32] = target: Inhibitor of nuclear factor kappa-B kinase subunit alpha (Homo sapiens) (UniProt O15111); conditions: Compound concentration 1000.0 nM
[33] = target: 5-hydroxytryptamine receptor 2B (Homo sapiens) (UniProt P41595); conditions: Compound concentration 10.0 uM
[34] = target: Activin receptor type-1-like (Homo sapiens) (UniProt P37023); conditions: Compound concentration 1000.0 nM
[35] = target: LIM domain kinase 1 (Homo sapiens) (UniProt P53667); conditions: Compound concentration 1000.0 nM
[36] = target: Serine/threonine-protein kinase 32C (Homo sapiens) (UniProt Q86UX6); conditions: Compound concentration 1000.0 nM
[37] = target: STE20-like serine/threonine-protein kinase (Homo sapiens) (UniProt Q9H2G2); conditions: Compound concentration 1000.0 nM
[38] = target: STE20/SPS1-related proline-alanine-rich protein kinase (Homo sapiens) (UniProt Q9UEW8); conditions: Compound concentration 1000.0 nM

Serine/threonine-protein kinase PAK 3 (Homo sapiens), sequence (O75914 whole entry, looked up): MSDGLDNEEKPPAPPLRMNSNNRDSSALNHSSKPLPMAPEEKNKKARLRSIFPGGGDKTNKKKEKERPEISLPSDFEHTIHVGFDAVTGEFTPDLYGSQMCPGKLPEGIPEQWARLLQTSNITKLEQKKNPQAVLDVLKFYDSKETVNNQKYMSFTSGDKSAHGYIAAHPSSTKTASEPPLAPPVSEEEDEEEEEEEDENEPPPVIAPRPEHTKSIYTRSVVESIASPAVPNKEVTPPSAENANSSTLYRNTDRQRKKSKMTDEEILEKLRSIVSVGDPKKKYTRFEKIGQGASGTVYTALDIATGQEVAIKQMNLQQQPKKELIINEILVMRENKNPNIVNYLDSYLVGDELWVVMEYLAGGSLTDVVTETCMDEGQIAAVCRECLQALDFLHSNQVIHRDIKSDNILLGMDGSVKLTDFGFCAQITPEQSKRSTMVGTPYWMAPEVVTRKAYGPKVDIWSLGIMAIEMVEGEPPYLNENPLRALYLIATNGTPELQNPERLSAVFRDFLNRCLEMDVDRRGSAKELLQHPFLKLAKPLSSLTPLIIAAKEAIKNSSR
5-hydroxytryptamine receptor 2A, sequence (P28223 whole entry): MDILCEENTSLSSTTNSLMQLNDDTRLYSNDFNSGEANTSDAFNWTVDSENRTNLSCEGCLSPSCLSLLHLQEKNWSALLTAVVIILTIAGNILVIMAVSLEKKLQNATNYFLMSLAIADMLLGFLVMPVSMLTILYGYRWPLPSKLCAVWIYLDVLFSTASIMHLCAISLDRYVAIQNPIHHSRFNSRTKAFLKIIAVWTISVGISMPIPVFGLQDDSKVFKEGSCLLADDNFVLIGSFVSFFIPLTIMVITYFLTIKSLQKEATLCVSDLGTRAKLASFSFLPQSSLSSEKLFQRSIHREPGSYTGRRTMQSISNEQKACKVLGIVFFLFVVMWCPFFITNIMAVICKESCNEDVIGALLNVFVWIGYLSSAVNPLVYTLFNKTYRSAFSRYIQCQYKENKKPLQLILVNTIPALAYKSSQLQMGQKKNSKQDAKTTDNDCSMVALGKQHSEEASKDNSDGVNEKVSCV

Structure (SMILES)	residual activity [1] [%]	inhibition [2] [%]	residual activity [3] [%]	residual activity [4] [%]	inhibition [5] [%]	residual activity [6] [%]	residual activity [7] [%]	residual activity [8] [%]	residual activity [9] [%]	residual activity [10] [%]	residual activity [11] [%]	residual activity [12] [%]	residual activity [13] [%]	residual activity [14] [%]	residual activity [15] [%]	residual activity [16] [%]	residual activity [17] [%]	inhibition [18] [%]	residual activity [19] [%]	inhibition (Rattus norvegicus) [%]	other results
O=C(NC[C@@H]1[C@H]2CN(C(=O)OCc3cc(C(F)(F)F)cc(C(F)(F)F)c3)C[C@@H]12)c1ccc2[nH]nnc2c1 [BI 2545]	100	51.4	100	88	4.06	84	83	85	81	88	100	94	100	67	97	100	78	28.9	94	63.7	residual activity [20]: 96%; residual activity [21]: 83%; residual activity [22]: 88%; residual activity [23]: 80%; residual activity [24]: 100%; residual activity [25]: 100%; residual activity [26]: 100%; residual activity [27]: 100%; residual activity [28]: 89%; residual activity [29]: 89%; residual activity [30]: 100%; residual activity [31]: 92%; residual activity [32]: 100%; inhibition [33]: 45.9%; residual activity [34]: 100%; residual activity [35]: 100%; residual activity [36]: 90%; residual activity [37]: 100%; residual activity [38]: 80%
Cc1nccc(COC(=O)N2C[C@@H]3[C@@H](CNC(=O)c4ccc5[nH]nnc5c4)[C@@H]3C2)n1 [BI 3017]	99	7.65	75	86	-3.15	94	96	100	88	96	100	100	100	100	100	93	85	26.1	91	-4.4	residual activity [20]: 89%; residual activity [21]: 100%; residual activity [22]: 100%; residual activity [23]: 94%; residual activity [24]: 92%; residual activity [25]: 100%; residual activity [26]: 100%; residual activity [27]: 79%; residual activity [28]: 66%; residual activity [29]: 97%; residual activity [30]: 95%; residual activity [31]: 93%; residual activity [32]: 100%; inhibition [33]: 27.1%; residual activity [34]: 100%; residual activity [35]: 100%; residual activity [36]: 95%; residual activity [37]: 100%; residual activity [38]: 79%
